Results taken from patent US20220380368A1, “SPIROCYCLIC ANDROGEN RECEPTOR PROTEIN DEGRADERS” (THE REGENTS OF THE UNIVERSITY OF MICHIGAN, priority 2019, published 2022).

Target: T1, AR protein (Homo sapiens, UniProt P10275)
T1 construct: endogenous in cells; host or cells: VCaP
T1 sequence (P10275 1-920): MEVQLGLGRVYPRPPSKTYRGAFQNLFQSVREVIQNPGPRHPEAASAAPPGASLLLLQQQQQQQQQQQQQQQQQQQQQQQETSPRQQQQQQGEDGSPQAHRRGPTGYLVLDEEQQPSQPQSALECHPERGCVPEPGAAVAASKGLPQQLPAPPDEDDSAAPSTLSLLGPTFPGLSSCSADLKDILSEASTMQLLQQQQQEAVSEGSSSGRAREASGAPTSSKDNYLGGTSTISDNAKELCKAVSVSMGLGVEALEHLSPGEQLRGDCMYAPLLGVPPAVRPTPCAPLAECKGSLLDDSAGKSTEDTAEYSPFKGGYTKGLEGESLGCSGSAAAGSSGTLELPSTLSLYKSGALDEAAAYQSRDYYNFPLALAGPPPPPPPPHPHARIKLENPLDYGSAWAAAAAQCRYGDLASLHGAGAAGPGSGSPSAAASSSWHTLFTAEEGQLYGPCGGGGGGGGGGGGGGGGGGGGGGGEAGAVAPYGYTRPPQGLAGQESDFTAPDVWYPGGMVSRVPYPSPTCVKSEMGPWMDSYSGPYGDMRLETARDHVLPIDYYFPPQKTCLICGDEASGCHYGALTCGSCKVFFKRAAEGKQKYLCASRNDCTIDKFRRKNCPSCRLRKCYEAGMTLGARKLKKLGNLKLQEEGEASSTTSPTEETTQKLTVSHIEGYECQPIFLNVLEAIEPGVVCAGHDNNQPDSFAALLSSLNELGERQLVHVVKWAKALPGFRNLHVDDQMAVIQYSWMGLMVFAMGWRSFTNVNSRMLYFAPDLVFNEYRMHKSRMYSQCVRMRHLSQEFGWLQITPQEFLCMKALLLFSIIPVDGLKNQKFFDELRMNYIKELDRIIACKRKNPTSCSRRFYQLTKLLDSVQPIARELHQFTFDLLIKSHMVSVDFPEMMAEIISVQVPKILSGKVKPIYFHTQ
Assay: Western blotting analysis of AR protein levels in VCaP cells, band quantification, DC50/DC90
Assay type: cell-based
Details: VCaP cells, Table 6; read-out: VCaP DC50
Description: The appropriate cell line, e.g., prostate cancer LNCaP, Vcap, or 22RV1 cell line, was treated with Compounds of the Disclosure as indicated. The treated cells were lysed with RIPA buffer. […] GAPDH was used as a loading control.
Bands were quantified with ImageJ software. The relative numbers of each band obtained from normalization with its corresponding GAPDH level were compared with Prism 8 software. The DC50 values were produced from Prism 8, and the DC90 values were calculated with an equation=Bottom+(Top−Bottom)/(1+10^((Log EC50−X)*HillSlope) based on DC50 and Hillslope values.

| SMILES | DC50 |
| --- | --- |
| C[C@H]1CC2(CCN(c3ccc(C(=O)N4CCC(CN5Cc6cc7c(cc6C5)C(=O)N(C5CCC(=O)NC5=O)C7=O)CC4)c(F)c3)CC2)CN1c1ccc(C#N)c(Cl)c1 (stereo partly drawn) [Cpd. No. 534, 2-chloro-4-((3S)-8-(4-(4-((6-(2,6-dioxopiperidin-3-yl)-5,7-dioxo-3,5,6,7-tetrahydropyrrolo[3,4-f]isoindol-2(1H)-yl)methyl)piperidine-1-carbonyl)-3-fluorophenyl)-3-methyl-2,8-diazaspiro[4.5]decan-2-yl)benzonitrile] | < 1 nM |
| C[C@H]1CC2(CCN(c3ccc(C(=O)N4CC[C@H](N5CCN(c6ccc7c(c6)C(=O)N(C6CCC(=O)NC6=O)C7=O)CC5)C4)cc3)CC2)CN1c1ccc(C#N)c(Cl)c1 (stereo partly drawn) [Cpd. No. 516, 2-chloro-4-((3S)-8-(4-((3S)-3-(4-(2-(2,6-dioxopiperidin-3-yl)-1,3-dioxoisoindolin-5-yl)piperazin-1-yl)pyrrolidine-1-carbonyl)phenyl)-3-methyl-2,8-diazaspiro[4.5]decan-2-yl)benzonitrile] | 1 to 10 nM |
| C[C@H]1CC2(CCN(c3ccc(C(=O)N4CCN(CC5CN(c6cc7c(cc6F)C(=O)N(C6CCC(=O)NC6=O)C7=O)C5)CC4)c(F)c3)CC2)CN1c1ccc(C#N)c(Cl)c1 (stereo partly drawn) [Cpd. No. 531, 2-chloro-4-((3S)-8-(4-(4-((1-(2-(2,6-dioxopiperidin-3-yl)-6-fluoro-1,3-dioxoisoindolin-5-yl)azetidin-3-yl)methyl)piperazine-1-carbonyl)-3-fluorophenyl)-3-methyl-2,8-diazaspiro[4.5]decan-2-yl)benzonitrile] | 1 to 10 nM |
| C[C@H]1CC2(CCN(c3ccc(C(=O)N4CCN(C5CN(c6cc7c(cc6F)C(=O)N(C6CCC(=O)NC6=O)C7=O)C5)CC4)nn3)CC2)CN1c1ccc(C#N)c(Cl)c1 (stereo partly drawn) [Cpd. No. 536, 2-chloro-4-((3S)-8-(6-(4-(1-(2-(2,6-dioxopiperidin-3-yl)-6-fluoro-1,3-dioxoisoindolin-5-yl)azetidin-3-yl)piperazine-1-carbonyl)pyridazin-3-yl)-3-methyl-2,8-diazaspiro[4.5]decan-2-yl)benzonitrile] | < 1 nM |
| C[C@H]1CC2(CCN(c3ccc(C(=O)N4CCN(C5CN(c6cc7c(cc6F)C(=O)N(C6CCC(=O)NC6=O)C7=O)C5)CC4)cc3F)CC2)CN1c1ccc(C#N)c(Cl)c1 (stereo partly drawn) [Cpd. No. 532, 2-chloro-4-((3S)-8-(4-(4-(1-(2-(2,6-dioxopiperidin-3-yl)-6-fluoro-1,3-dioxoisoindolin-5-yl)azetidin-3-yl)piperazine-1-carbonyl)-2-fluorophenyl)-3-methyl-2,8-diazaspiro[4.5]decan-2-yl)benzonitrile] | < 1 nM |
| C[C@H]1CC2(CCN(c3ccc(C(=O)N4CCN(CC5CN(c6cc7c(cc6F)C(=O)N(C6CCC(=O)NC6=O)C7=O)C5)CC4)cc3F)CC2)CN1c1ccc(C#N)c(Cl)c1 (stereo partly drawn) [Cpd. No. 533, 2-chloro-4-((3S)-8-(4-(4-((1-(2-(2,6-dioxopiperidin-3-yl)-6-fluoro-1,3-dioxoisoindolin-5-yl)azetidin-3-yl)methyl)piperazine-1-carbonyl)-2-fluorophenyl)-3-methyl-2,8-diazaspiro[4.5]decan-2-yl)benzonitrile] | < 1 nM |
| C[C@H]1CC2(CCN(c3ccc(C(=O)N4CCN(C5CN(c6cc7c(cc6F)C(=O)N(C6CCC(=O)NC6=O)C7=O)C5)CC4)cn3)CC2)CN1c1ccc(C#N)c(Cl)c1 (stereo partly drawn) [Cpd. No. 506, 2-chloro-4-((3S)-8-(5-(4-(1-(2-(2,6-dioxopiperidin-3-yl)-6-fluoro-1,3-dioxoisoindolin-5-yl)azetidin-3-yl)piperazine-1-carbonyl)pyridin-2-yl)-3-methyl-2,8-diazaspiro[4.5]decan-2-yl)benzonitrile] | < 1 nM |
| C[C@H]1CC2(CCN(c3ccc(C(=O)N4CCC(CN5Cc6cc7c(cc6C5)C(=O)N(C5CCC(=O)NC5=O)C7=O)CC4)cc3F)CC2)CN1c1ccc(C#N)c(Cl)c1 (stereo partly drawn) [Cpd. No. 527, 2-chloro-4-((3S)-8-(4-(4-((6-(2,6-dioxopiperidin-3-yl)-5,7-dioxo-3,5,6,7-tetrahydropyrrolo[3,4-f]isoindol-2(1H)-yl)methyl)piperidine-1-carbonyl)-2-fluorophenyl)-3-methyl-2,8-diazaspiro[4.5]decan-2-yl)benzonitrile] | < 1 nM |
| C[C@H]1CC2(CCN(c3ccc(C(=O)N4CCN(C5CCN(c6ccc7c(c6)C(=O)N(C6CCC(=O)NC6=O)C7=O)CC5)CC4)cc3F)CC2)CN1c1ccc(C#N)c(Cl)c1 (stereo partly drawn) [Cpd. No. 518, 2-chloro-4-((3S)-8-(4-(4-(1-(2-(2,6-dioxopiperidin-3-yl)-1,3-dioxoisoindolin-5-yl)piperidin-4-yl)piperazine-1-carbonyl)-2-fluorophenyl)-3-methyl-2,8-diazaspiro[4.5]decan-2-yl)benzonitrile] | 10 to 100 nM |
| C[C@H]1CC2(CCN(c3ncc(C(=O)N4CCC(N5CCN(c6cc7c(cc6F)C(=O)N(C6CCC(=O)NC6=O)C7=O)CC5)CC4)cn3)CC2)CN1c1ccc(C#N)c(Cl)c1 (stereo partly drawn) [Cpd. No. 525, 2-chloro-4-((3S)-8-(5-(4-(4-(2-(2,6-dioxopiperidin-3-yl)-6-fluoro-1,3-dioxoisoindolin-5-yl)piperazin-1-yl)piperidine-1-carbonyl)pyrimidin-2-yl)-3-methyl-2,8-diazaspiro[4.5]decan-2-yl)benzonitrile] | < 1 nM |
| C[C@H]1CC2(CCN(c3ccc(C(=O)N4CC[C@@H](N5CCN(c6cc7c(cc6F)C(=O)N(C6CCC(=O)NC6=O)C7=O)CC5)C4)cc3)CC2)CN1c1ccc(C#N)c(Cl)c1 (stereo partly drawn) [Cpd. No. 517, 2-chloro-4-((3S)-8-(4-((3R)-3-(4-(2-(2,6-dioxopiperidin-3-yl)-6-fluoro-1,3-dioxoisoindolin-5-yl)piperazin-1-yl)pyrrolidine-1-carbonyl)phenyl)-3-methyl-2,8-diazaspiro[4.5]decan-2-yl)benzonitrile] | 1 to 10 nM |
| C[C@H]1CC2(CCN(c3ccc(C(=O)N4CC(N5CCN(c6cc7c(cc6F)C(=O)N(C6CCC(=O)NC6=O)C7=O)CC5)C4)cn3)CC2)CN1c1ccc(C#N)c(Cl)c1 (stereo partly drawn) [Cpd. No. 539, 2-chloro-4-((3S)-8-(5-(3-(4-(2-(2,6-dioxopiperidin-3-yl)-6-fluoro-1,3-dioxoisoindolin-5-yl)piperazin-1-yl)azetidine-1-carbonyl)pyridin-2-yl)-3-methyl-2,8-diazaspiro[4.5]decan-2-yl)benzonitrile] | 1 to 10 nM |
| C[C@H]1CC2(CCN(c3ccc(C(=O)N4CC[C@@H](N5CCN(c6cc7c(cc6F)C(=O)N(C6CCC(=O)NC6=O)C7=O)CC5)C4)cc3)CC2)CN1c1ccc(C#N)c(Cl)c1 (stereo partly drawn) [Cpd. No. 515, 2-chloro-4-((3S)-8-(4-((3R)-3-(4-(2-(2,6-dioxopiperidin-3-yl)-6-fluoro-1,3-dioxoisoindolin-5-yl)piperazin-1-yl)pyrrolidine-1-carbonyl)phenyl)-3-methyl-2,8-diazaspiro[4.5]decan-2-yl)benzonitrile] | 10 to 100 nM |
| C[C@H]1CC2(CCN(c3ncc(C(=O)N4CCN(C5CN(c6ccc7c(c6)C(=O)N(C6CCC(=O)NC6=O)C7=O)C5)CC4)cn3)CC2)CN1c1ccc(C#N)c(Cl)c1 (stereo partly drawn) [Cpd. No. 512, 2-chloro-4-((3S)-8-(5-(4-(1-(2-(2,6-dioxopiperidin-3-yl)-1,3-dioxoisoindolin-5-yl)azetidin-3-yl)piperazine-1-carbonyl)pyrimidin-2-yl)-3-methyl-2,8-diazaspiro[4.5]decan-2-yl)benzonitrile] | < 1 nM |
| C[C@H]1CC2(CCN(c3ncc(C(=O)N4CCN(C5CCN(c6cc7c(cc6F)C(=O)N(C6CCC(=O)NC6=O)C7=O)CC5)CC4)cn3)CC2)CN1c1ccc(C#N)c(Cl)c1 (stereo partly drawn) [Cpd. No. 524, 2-chloro-4-((3S)-8-(5-(4-(1-(2-(2,6-dioxopiperidin-3-yl)-6-fluoro-1,3-dioxoisoindolin-5-yl)piperidin-4-yl)piperazine-1-carbonyl)pyrimidin-2-yl)-3-methyl-2,8-diazaspiro[4.5]decan-2-yl)benzonitrile] | < 1 nM |
| C[C@H]1CC2(CCN(c3ncc(C(=O)N4CCC(N5CCN(c6ccc7c(c6)C(=O)N(C6CCC(=O)NC6=O)C7=O)CC5)CC4)cn3)CC2)CN1c1ccc(C#N)c(Cl)c1 (stereo partly drawn) [Cpd. No. 514, 2-chloro-4-((3S)-8-(5-(4-(4-(2-(2,6-dioxopiperidin-3-yl)-1,3-dioxoisoindolin-5-yl)piperazin-1-yl)piperidine-1-carbonyl)pyrimidin-2-yl)-3-methyl-2,8-diazaspiro[4.5]decan-2-yl)benzonitrile] | < 1 nM |
